From USRE48461E1, “Modulation of androgen receptor expression” (Ionis Pharmaceuticals, Inc., priority 2012, dated 2021)

Columns and labels:
Type in all cases: cell-based, human
PSA mRNA = assay: PSA expression in VCaP cells; conditions: RNAiMax, 48 hrs
TMPRSS2 mRNA [1] = assay: TMPRSS2 expression in LNCaP cells (complete, CSS+DHT medium); conditions: for Percent inhibition of TMPRSS2 expression in LNCaP cells cultured in CSS + DHT medium: CSS + DHT (1 nM) medium, 48 hrs; for Percent inhibition of TMPRSS2 expression in LNCaP cells cultured in complete medium: 48 hours
How it was run: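 LNCaP cells treated with antisense oligonucleotides, ISIS 549148 as negative control; AR, PSA and TMPRSS2 RNA measured after 48 h. Complete medium used 1,000 cells/well; stripped-serum condition used 2,000 cells/well in phenol red-free RPMI with 5% charcoal-stripped serum, with 1 nM DHT (final) added 4 h after treatment.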

cleaved PARP = assay: Cleaved PARP western blot in VCaP cells
TMPRSS2 mRNA [2] = assay: TMPRSS2 expression in C4-2B cells (Example 30); conditions: 48 hrs
How it was run: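 C4-2B cells were plated at 1,000 cells per well in complete medium, or at 2,000 cells per well in CSS medium with 1 nM DHT. ISIS 549148 served as the negative control. AR, PSA and TMPRSS2 RNA levels were measured after 48 hrs.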

TMPRSS2 mRNA [3] = assay: TMPRSS2 expression in VCaP cells; conditions: RNAiMax, 48 hrs
[4] = test system: prostate-specific antigen (PSA) mRNA; assay: Time-course PSA expression in C4-2B cells
How it was run: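 C4-2B cells at 1,000/well in complete medium, treated with antisense oligonucleotide; ISIS 549148 as negative control. PSA and TMPRSS2 mRNA measured after 8, 24 and 48 h, given as percent inhibition relative to non-treated cells.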

C4-2B cells = assay: C4-2B cell proliferation (complete or CSS+DHT medium; Example 30); conditions: 5 days; for Proliferation (% untreated control): C4-2B cells
Description: After a treatment period of 5 days in complete medium or CSS+1 nM DHT medium, the proliferative capacity of the cancer cells was measured with using CellTiter 96® AQueous One or CellTiter-Glo® Solution Cell Proliferation kit (Promega), following the manufacturer's instructions.

TMPRSS2 mRNA [5] = assay: TMPRSS2 expression in 22RV1 cells; conditions: RNAiMax, 48 hrs
How it was run: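 In 22RV1 cells, full-length AR, AR-V7, PSA and TMPRSS2 RNA measured after 48 h compound incubation. Complete-medium format used 1,000 cells/well; CSS+DHT format used 2,000 cells/well cultured 16 h in CSS medium, with 1 nM DHT added after 4 h.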

For “TGATTTAATGGTTGCA [ISIS 569236] (cEt/MOE gapmer chemistry, further chemistry not given here) [targets intron 1]”, the “Percent inhibition of PSA expression” value (PSA mRNA; CSS + DHT medium, 1.34 nM) was 8%, the “Percent inhibition of PSA expression” value (PSA mRNA; CSS + DHT medium, 4.0 nM) was 25% and the “Percent inhibition of PSA expression” value (PSA mRNA; CSS + DHT medium, 13.4 nM) was 62%. For the same sequence, the “Percent inhibition of PSA expression” value (PSA mRNA; CSS + DHT medium, 40 nM) was 74%, the “Percent inhibition of PSA expression” value (PSA mRNA; complete medium, 1.34 nM) was 7% and the “Percent inhibition of PSA expression” value (PSA mRNA; complete medium, 4.0 nM) was 19%. The “Percent inhibition of PSA expression” value (PSA mRNA; complete medium, 13.4 nM) was 40%, the “Percent inhibition of PSA expression” value (PSA mRNA; complete medium, 40 nM) was 52% and the “Percent inhibition of TMPRSS2 expression in LNCaP cells cultured in CSS + DHT medium” value (shortened to “Percent inhibition … in CSS + DHT medium”) (TMPRSS2 mRNA [1]; 0.04 μM) was 6%. The “Percent inhibition … in CSS + DHT medium” value (TMPRSS2 mRNA [1]; 0.2 μM) was 8%, the “Percent inhibition … in CSS + DHT medium” value (TMPRSS2 mRNA [1]; 1 μM) was 40% and the “Percent inhibition … in CSS + DHT medium” value (TMPRSS2 mRNA [1]; 5.0 μM) was 50%. For the same sequence, the “Percent inhibition of TMPRSS2 expression in LNCaP cells cultured in complete medium” value (“Percent inhibition … in complete medium” for short) (TMPRSS2 mRNA [1]; 0.04 μM) was 0%, the “Percent inhibition … in complete medium” value (TMPRSS2 mRNA [1]; 0.2 μM) was 5% and the “Percent inhibition … in complete medium” value (TMPRSS2 mRNA [1]; 1 μM) was 40%. The “Percent inhibition … in complete medium” value (TMPRSS2 mRNA [1]; 5.0 μM) was 48%, the “cleaved PARP levels (western blot)” value (cleaved PARP) was “increased in a dose-dependent manner” and the “Percent inhibition of TMPRSS2 expression” value (TMPRSS2 mRNA [2]; CSS + DHT medium, 0.04 μM) was 0%. For the same sequence, the “Percent inhibition of TMPRSS2 expression” value (TMPRSS2 mRNA [2]; CSS + DHT medium, 0.2 μM) was 6%, the “Percent inhibition of TMPRSS2 expression” value (TMPRSS2 mRNA [2]; CSS + DHT medium, 1 μM) was 43% and the “Percent inhibition of TMPRSS2 expression” value (TMPRSS2 mRNA [2]; CSS + DHT medium, 5.0 μM) was 59%. For the same sequence, the “Percent inhibition of TMPRSS2 expression” value (TMPRSS2 mRNA [2]; complete medium, 0.04 μM) was 33%, the “Percent inhibition of TMPRSS2 expression” value (TMPRSS2 mRNA [2]; complete medium, 0.2 μM) was 59% and the “Percent inhibition of TMPRSS2 expression” value (TMPRSS2 mRNA [2]; complete medium, 1 μM) was 69%. For the same sequence, the “Percent inhibition of TMPRSS2 expression” value (TMPRSS2 mRNA [2]; complete medium, 5.0 μM) was 73%, the “Percent inhibition of TMPRSS2 expression” value (TMPRSS2 mRNA [3]; CSS + DHT medium, 1.34 nM) was 6% and the “Percent inhibition of TMPRSS2 expression” value (TMPRSS2 mRNA [3]; CSS + DHT medium, 4.0 nM) was 19%. The “Percent inhibition of TMPRSS2 expression” value (TMPRSS2 mRNA [3]; CSS + DHT medium, 13.4 nM) was 40%, the “Percent inhibition of TMPRSS2 expression” value (TMPRSS2 mRNA [3]; CSS + DHT medium, 40 nM) was 54% and the “Percent inhibition of TMPRSS2 expression” value (TMPRSS2 mRNA [3]; complete medium, 1.34 nM) was 0%. For the same sequence, the “Percent inhibition of TMPRSS2 expression” value (TMPRSS2 mRNA [3]; complete medium, 4.0 nM) was 0%, the “Percent inhibition of TMPRSS2 expression” value (TMPRSS2 mRNA [3]; complete medium, 13.4 nM) was 0% and the “Percent inhibition of TMPRSS2 expression” value (TMPRSS2 mRNA [3]; complete medium, 40 nM) was 36%. For the same sequence, the “Percent inhibition of PSA expression compared to the control group in 8 hours” value (shortened to “Percent inhibition … in 8 hours”) ([4]; 0.04 μM) was 18%, the “Percent inhibition of PSA expression compared to the control group in 24 hours” value (from here on “Percent inhibition … in 24 hours”) ([4]; 0.04 μM) was 10% and the “Percent inhibition of PSA expression compared to the control group in 48 hours” value (from here on “Percent inhibition … in 48 hours”) ([4]; 0.04 μM) was 4%. For the same sequence, the “Percent inhibition … in 8 hours” value ([4]; 0.2 μM) was 3%, the “Percent inhibition … in 24 hours” value ([4]; 0.2 μM) was 34% and the “Percent inhibition … in 48 hours” value ([4]; 0.2 μM) was 45%. For the same sequence, the “Percent inhibition … in 8 hours” value ([4]; 1 μM) was 0%, the “Percent inhibition … in 24 hours” value ([4]; 1 μM) was 44% and the “Percent inhibition … in 48 hours” value ([4]; 1 μM) was 68%. For the same sequence, the “Percent inhibition … in 8 hours” value ([4]; 5.0 μM) was 0%, the “Percent inhibition … in 24 hours” value ([4]; 5.0 μM) was 54% and the “Percent inhibition … in 48 hours” value ([4]; 5.0 μM) was 76%. The PSA expression ([4]; time course) was “reduced PSA and TMPRSS2 expression in the cells relative to the control set at the 24 hr and 48 hr time points”, the “Proliferation (% untreated control)” value (C4-2B cells; CSS + DHT medium, 0.04 μM) was 109 % untreated control and the “Proliferation (% untreated control)” value (C4-2B cells; CSS + DHT medium, 0.2 μM) was 109 % untreated control. The “Proliferation (% untreated control)” value (C4-2B cells; CSS + DHT medium, 1 μM) was 67 % untreated control, the “Proliferation (% untreated control)” value (C4-2B cells; CSS + DHT medium, 5.0 μM) was 39 % untreated control and the “Proliferation (% untreated control)” value (C4-2B cells; complete medium, 0.04 μM) was 98 % untreated control. For the same sequence, the “Proliferation (% untreated control)” value (C4-2B cells; complete medium, 0.2 μM) was 64 % untreated control, the “Proliferation (% untreated control)” value (C4-2B cells; complete medium, 1 μM) was 55 % untreated control and the “Proliferation (% untreated control)” value (C4-2B cells; complete medium, 5.0 μM) was 48 % untreated control. For the same sequence, the “proliferation of C4-2B cells” value (C4-2B cells; complete medium or CSS+1 nM DHT) was “reduced proliferation of the cells in a dose dependent compared to the control”, the “Percent inhibition of TMPRSS2 expression” value (TMPRSS2 mRNA [5]; CSS + DHT medium, 1.34 nM) was 27% and the “Percent inhibition of TMPRSS2 expression” value (TMPRSS2 mRNA [5]; CSS + DHT medium, 4.0 nM) was 50%. The “Percent inhibition of TMPRSS2 expression” value (TMPRSS2 mRNA [5]; CSS + DHT medium, 13.4 nM) was 75%, the “Percent inhibition of TMPRSS2 expression” value (TMPRSS2 mRNA [5]; complete medium, 1.34 nM) was 0% and the “Percent inhibition of TMPRSS2 expression” value (TMPRSS2 mRNA [5]; complete medium, 4.0 nM) was 13%. For the same sequence, the “Percent inhibition of TMPRSS2 expression” value (TMPRSS2 mRNA [5]; complete medium, 13.4 nM) was 21% and the “Percent inhibition of TMPRSS2 expression” value (TMPRSS2 mRNA [5]; complete medium, 40 nM) was 36%.
